Here are results for 19 compounds from US20240199654A1, “CTLA-4 SMALL MOLECULE DEGRADATION AGENT AND APPLICATION THEREOF” (SUZHOU GUOKUANG PHARMTECH. CO., LTD., priority 2021, published 2024).

Bounds are passed on as bounds.

The target in the test is T1, LRBA and CTLA-4 reporting system (Homo sapiens, UniProt P16410+P50851).
T1 construct: expressed in transfected cells; host or cells: HEK293
T1 sequence (P16410 36-223): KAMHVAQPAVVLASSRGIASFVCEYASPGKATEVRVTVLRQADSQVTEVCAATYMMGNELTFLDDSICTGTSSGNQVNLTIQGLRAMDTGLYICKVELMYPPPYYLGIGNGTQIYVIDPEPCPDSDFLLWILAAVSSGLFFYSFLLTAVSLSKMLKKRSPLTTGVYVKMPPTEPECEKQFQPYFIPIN
T1 sequence (P50851 whole entry): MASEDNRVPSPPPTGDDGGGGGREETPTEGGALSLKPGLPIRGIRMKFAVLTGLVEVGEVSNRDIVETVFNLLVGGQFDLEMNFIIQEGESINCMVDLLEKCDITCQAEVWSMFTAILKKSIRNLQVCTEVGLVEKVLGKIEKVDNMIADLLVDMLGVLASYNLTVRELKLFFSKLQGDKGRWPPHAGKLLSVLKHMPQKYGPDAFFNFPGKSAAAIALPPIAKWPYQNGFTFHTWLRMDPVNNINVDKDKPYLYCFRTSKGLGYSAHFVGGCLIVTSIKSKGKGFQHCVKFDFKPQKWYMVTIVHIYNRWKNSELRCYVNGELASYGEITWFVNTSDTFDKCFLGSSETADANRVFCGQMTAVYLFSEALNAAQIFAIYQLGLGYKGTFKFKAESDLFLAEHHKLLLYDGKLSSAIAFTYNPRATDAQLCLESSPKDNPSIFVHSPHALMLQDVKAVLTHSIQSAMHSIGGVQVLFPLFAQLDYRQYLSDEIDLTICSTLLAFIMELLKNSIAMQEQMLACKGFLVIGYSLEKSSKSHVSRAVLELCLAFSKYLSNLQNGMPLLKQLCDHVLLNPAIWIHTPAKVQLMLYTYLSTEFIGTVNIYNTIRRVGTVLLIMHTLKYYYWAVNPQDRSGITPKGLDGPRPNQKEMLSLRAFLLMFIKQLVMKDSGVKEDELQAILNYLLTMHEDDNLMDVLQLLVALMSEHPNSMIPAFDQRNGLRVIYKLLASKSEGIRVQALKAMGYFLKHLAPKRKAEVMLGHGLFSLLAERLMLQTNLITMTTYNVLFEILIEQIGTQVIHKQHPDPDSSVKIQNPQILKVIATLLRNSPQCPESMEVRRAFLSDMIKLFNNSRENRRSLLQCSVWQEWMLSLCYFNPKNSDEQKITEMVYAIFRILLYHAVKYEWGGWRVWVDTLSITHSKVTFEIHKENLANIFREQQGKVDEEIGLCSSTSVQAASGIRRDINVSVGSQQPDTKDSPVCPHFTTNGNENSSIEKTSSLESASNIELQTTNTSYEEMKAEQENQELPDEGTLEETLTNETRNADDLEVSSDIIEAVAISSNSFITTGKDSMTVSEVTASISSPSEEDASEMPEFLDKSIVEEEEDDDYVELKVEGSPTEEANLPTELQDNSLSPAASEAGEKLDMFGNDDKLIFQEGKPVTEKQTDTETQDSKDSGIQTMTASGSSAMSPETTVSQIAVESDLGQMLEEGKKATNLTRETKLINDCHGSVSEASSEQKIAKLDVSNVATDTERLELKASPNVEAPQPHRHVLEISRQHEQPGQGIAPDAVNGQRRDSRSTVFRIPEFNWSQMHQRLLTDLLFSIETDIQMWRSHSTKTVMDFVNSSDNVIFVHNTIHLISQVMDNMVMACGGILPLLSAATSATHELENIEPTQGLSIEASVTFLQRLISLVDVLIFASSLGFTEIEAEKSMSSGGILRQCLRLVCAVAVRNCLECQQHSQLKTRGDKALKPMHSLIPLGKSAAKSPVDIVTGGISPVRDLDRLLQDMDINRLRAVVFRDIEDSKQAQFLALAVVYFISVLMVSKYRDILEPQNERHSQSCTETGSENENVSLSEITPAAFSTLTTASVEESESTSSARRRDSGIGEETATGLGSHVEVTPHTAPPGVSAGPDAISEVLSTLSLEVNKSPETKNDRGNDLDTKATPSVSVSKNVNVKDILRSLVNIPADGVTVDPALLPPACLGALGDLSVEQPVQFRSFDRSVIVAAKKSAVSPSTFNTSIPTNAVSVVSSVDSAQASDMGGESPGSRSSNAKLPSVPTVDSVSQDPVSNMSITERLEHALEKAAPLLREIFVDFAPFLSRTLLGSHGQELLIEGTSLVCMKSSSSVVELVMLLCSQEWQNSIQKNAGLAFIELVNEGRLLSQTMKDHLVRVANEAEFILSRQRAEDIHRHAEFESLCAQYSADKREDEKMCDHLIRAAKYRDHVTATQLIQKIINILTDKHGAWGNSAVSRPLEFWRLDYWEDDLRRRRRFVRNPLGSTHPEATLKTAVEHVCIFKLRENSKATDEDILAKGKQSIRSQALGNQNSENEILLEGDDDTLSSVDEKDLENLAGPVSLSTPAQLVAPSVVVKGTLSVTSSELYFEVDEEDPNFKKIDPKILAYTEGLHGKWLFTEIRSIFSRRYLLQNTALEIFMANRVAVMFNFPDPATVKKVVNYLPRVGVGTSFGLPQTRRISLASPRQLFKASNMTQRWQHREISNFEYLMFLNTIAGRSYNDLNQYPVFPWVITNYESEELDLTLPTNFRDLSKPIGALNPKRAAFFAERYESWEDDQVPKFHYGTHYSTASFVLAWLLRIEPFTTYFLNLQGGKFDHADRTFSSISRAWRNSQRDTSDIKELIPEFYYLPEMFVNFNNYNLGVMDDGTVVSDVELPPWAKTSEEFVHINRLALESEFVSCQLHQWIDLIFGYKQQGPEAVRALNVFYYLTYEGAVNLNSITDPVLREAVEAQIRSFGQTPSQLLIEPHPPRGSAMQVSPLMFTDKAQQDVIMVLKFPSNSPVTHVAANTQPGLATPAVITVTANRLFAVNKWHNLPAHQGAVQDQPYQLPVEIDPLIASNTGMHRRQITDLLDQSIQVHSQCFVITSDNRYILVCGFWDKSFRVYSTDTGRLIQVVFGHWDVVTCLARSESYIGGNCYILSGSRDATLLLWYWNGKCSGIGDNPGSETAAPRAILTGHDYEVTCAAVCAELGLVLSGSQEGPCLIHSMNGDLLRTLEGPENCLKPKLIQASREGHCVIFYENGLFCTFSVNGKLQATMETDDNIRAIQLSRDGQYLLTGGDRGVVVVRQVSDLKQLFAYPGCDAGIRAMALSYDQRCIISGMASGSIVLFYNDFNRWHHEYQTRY
As to the kind of experiment: LRBA/CTLA-4 protein-protein interaction reporting system, dual luciferase assay in HEK293 cells. The note with it: HEK293 cells co-transfected with LRBA and CTLA-4 reporting system, 24 h after dosing; read-out: In vitro activity (IC50: concentration of compounds that inhibit 50% of reporting system activity). The format is cell-based. Here is the method: HEK293 cells were spread on 96-well plates, and LRBA and CTLA-4 reporting system were co-transfected into HEK293 cells after 24 h. After 24 h, different compounds with final concentrations of 0.01, 0.033, 0.10, 0.33, 1.00, 3.33, 10.00, 33.33, and 100.00 μM were added. 24 h after dosing, the cell culture medium was removed and the cells were washed with cold PBS. Then the activity of the compounds were detected by the dual luciferase assay kit, and IC50 values were calculated according to the results.
For the compounds with strong activity (IC50<200 nM), the degradation of CTLA-4 protein was further detected by Western Blot. • IC50: Concentration of compounds that inhibit 50% of reporting system activity The size of IC50 is divided into four levels: • ++++, IC50<200 nM; +++, IC50 is 200-1000 nM; ++, IC50 is 1000-2000 nM; +, IC50>2000 nM.
For `OCC1CCN(c2nccc(-c3cnc4ccccc4c3)n2)CC1` [Compound 20, (1-(4-(quinolin-3-yl)pyrimidin-2-yl)piperidin-4-yl)methanol], the IC50 was more than 2000 nM.
For the compound `c1ccc2ncc(-c3ccnc(N4CCCNCC4)n3)cc2c1` [Compound 24, 3-(2-(1,4-diaza-1-yl)pyrimidin-4-yl)quinoline], the IC50 is more than 2000 nM.
On to `NCC1CCN(c2nccc(-c3cc4ccccc4nc3N3CCC(CN)CC3)n2)CC1` [Compound 8, (1-(3-(2-(4-(aminomethyl)piperidin-1-yl)pyrimidin-4-yl)quinolin-2-yl)piperidin-4-yl)methylamine], for which the IC50 was 1000 to 2000 nM.
As for `[2H]c1nc2ccccc2cc1-c1ccnc(N2CCC(CN)CC2)n1` [Compound 11, (1-(4-(quinolin-3-yl-2-d)pyrimidin-2-yl)piperidin-4-yl)methylamine], the IC50 is less than 200 nM.
As for `NCC1CCN(c2nccc(-c3ccc4ncccc4c3)n2)CC1` [Compound 3, (1-(4-(quinolin-6-yl)pyrimidin-2-yl)piperidin-4-yl)methylamine], the IC50 was more than 2000 nM.
On to `NCC1CCN(c2nccc(-c3ccc4ccccc4n3)n2)CC1` [Compound 5, (1-(4-(quinolin-2-yl)pyrimidin-2-yl)piperidin-4-yl)methylamine], for which the IC50 was more than 2000 nM.
To `NCC1CCN(c2cc(-c3cnc4ccccc4c3)ccn2)CC1` [Compound 12, (1-(4-(quinolin-3-yl)pyridin-2-yl)piperidin-4-yl)methylamine] belongs more than 2000 nM; to `NCCC1CCN(c2nccc(-c3cnc4ccccc4c3)n2)CC1` [Compound 19, 2-(1-(4-(quinolin-3-yl)pyrimidin-2-yl)piperidin-4-yl)ethylamine], 200 to 1000 nM; to `Cc1c(-c2cnc3ccccc3c2)ncnc1N1CCNCC1` [Compound 53, 3-(5-methyl-6-(piperazin-1-yl)pyrimidin-4-yl)quinoline], less than 200 nM.
Take `NCC1CCN(c2nccc(-c3cnc4ccc(F)cc4c3)n2)CC1` [Compound 7, (1-(4-(6-fluoroquinolin-3-yl)pyrimidin-2-yl)piperidin-4-yl)methylamine]: the IC50 lay in the range of 200 to 1000 nM.
On to `O=CNCC1CCN(c2nccc(-c3ccc4ncccc4c3)n2)CC1` [Compound 4, N-((1-(4-(quinolin-6-yl)pyrimidin-2-yl)piperidin-4-yl)methyl)formamide], for which the IC50 is more than 2000 nM.
With `NCCCNc1nccc(-c2cnc3ccccc3c2)n1` [Compound 27, N-(4-(quinolin-3-yl)pyrimidin-2-yl)propane-1,3-diamine], the IC50 is 1000 to 2000 nM.
On to `COc1cnc(N2CCNCC2)nc1-c1cnc2ccccc2c1` [Compound 43, 3-(5-methoxy-2-(piperazin-1-yl)pyrimidin-4-yl)quinoline], for which the IC50 was less than 200 nM.
As for `Nc1cc(N2CCNCC2)nc(-c2cnc3ccccc3c2)n1` [Compound 48, 6-(piperazin-1-yl)-2-(quinolin-3-yl)pyrimidin-4-amine], the IC50 is 1000 to 2000 nM.
As for `NCC1CCN(c2cccc(-c3cnc4ccccc4c3)c2)CC1` [Compound 15, (1-(3-(quinolin-3-yl)phenyl)piperidin-4-yl)methylamine], the IC50 is more than 2000 nM.
As for `COc1ccc(-c2ccnc(N3CCNCC3)n2)cc1OC` [Compound 31, 4-(3,4-dimethoxy-phenyl)-2-piperazin-1-yl-pyrimidine], the IC50 is more than 2000 nM.
Turning to `c1cc(-c2cnc3c(c2)OCCO3)nc(N2CCNCC2)n1` [Compound 28, 7-(2-(piperazin-1-yl)pyrimidin-4-yl)-2,3-dihydro-[1,4]dioxy[2,3-b]pyridine], the IC50 is more than 2000 nM.
Take `NCC1CCN(c2nccc(-c3cc4ccccc4nc3O)n2)CC1` [Compound 10, 3-(2-(4-(aminomethyl)piperidin-1-yl)pyrimidin-4-yl)quinolin-2-ol]: the IC50 was less than 200 nM.
As to `CN1CCN(c2nccc(-c3cnc4ccccc4c3)n2)CC1` [Compound 23, 3-(2-(4-methylpiperazin-1-yl)pyrimidin-4-yl)quinoline], the IC50 is more than 2000 nM.
